Experimental data: patent publication US20230111132A1, “STABILIZATION OF MHC COMPLEXES” (The Regents of the University of California, priority 2019, published 2023)

What was measured:
HLA-B*57:01 [1] = target: T1, HLA-B*57:01 (Homo sapiens, UniProt P01889, D201E/D98Y/E176V/E187L/E204Q/E69M/E70A/G107R/I90N/K202T/L105A/L119I/N104I/N87E/Q89R/Q94S/R106L/R155S/R180L/R86G/S101N/S121V/S35A/S48A/T118I/V36M/Y140S/Y91M); conditions: PepV HSITYLLPV; known; cited from earlier work
HLA-B*57:01 [2] = target: T1, HLA-B*57:01; assay: MHC refolding ELISA (capture ELISA of refolded MHC-peptide complex); format: biochemical; set-up: Denatured heavy chain (final concentration 1 μM)
Procedure: FIG. 13. Primary assay: refolding ELISA.
Refolding reactions were set up in 96-well plates on ice by the successive addition of the following: • 1. Refolding Buffer (400 mM Arg-HCl, 100 mM Tris 8.0, 5 mM glutathione (GSH), 0.5 mM glutathione disulfide (GSSG), 1× cOmplete protease inhibitor cocktail); • 2. Beta-2-microglobulin (final concentration 2 μM). • 3. Peptide (final concentration 40 μM). • 4. Denatured heavy chain (final concentration 1 μM).
[…] Meanwhile, 96-well ELISA plate (Coming 3361) was treated with W6/32 (5 μg/mL) at 4° C. overnight. The plate was washed with PBS (2×200 μL), then blocked with 375 μL 3% BSA/PBS at 23° C. for 1 h. After washing the plate with PBST (3×200 μL), 90 μL 1% BSA/PBS was added to each well.
Detection of refolding was performed as follows: • 1. Add 10 μL of the refolding mixture to each well of the ELISA plate. • 2. Incubate the plate with shaking at 23° C. for 1 h. • 3. Wash plate with 1% BSA/PBS (3×200 μL). • 4. Add 50 μL BBM.1-HRP (1 μg/mL in 1% BSA/PBS) and incubate the plate with shaking at 23° C. for 1 h. • 5. Wash plate with PBST (3×200 μL). • 6. Wash plate with PBS (1×100 μL). • 7. Add 50 μL TMB Ultra and incubate the plate with shaking for 5 min. • 8. Stop the reaction by addition of 20 μL 2.0 M sulfuric acid. • Read absorbance at 450 nm within 10 min. […]

Structure (SMILES)	stabilization of PepV in HLA-B*57:01 (HLA-B*57:01 [1])	stabilization of the presentation of mutant K-Ras peptides by HLA-B*57:01 (HLA-B*57:01 [2]; peptide panel VVVGAVGVGG/A/V/I/K/W and HSITYLLPV (FIG. 8, FIG. 9))	MHC-peptide complex formation after 72 h (HLA-B*57:01 [2]; 40 μM G12V 7-16, 1% DMSO, 10° C., 72 hours)
Nc1nc(NC2CC2)c2ncn([C@H]3C=C[C@@H](CO)C3)c2n1 [abacavir]	stabilized	induced stabilization	–
CNS(=O)(=O)c1cc(Nc2nccc(N(C)c3ccc4nn(C)c(C)c4c3)n2)ccc1C [09-045B]	–	–	may be less susceptible to this instability
